Reference: PubChem BioAssay AID2060621 (Molecular Pharmacology Branch, DTP, NCI, 2025)
Blank lines part the entries; values can stand above or below the molecule they belong to.

Tested on: 324938-238-R-J1-PDC complex spheroids viability
Test: Anticancer human tumor 324938-238-R-J1-PDC patient-derived bladder carcinoma cell line growth inhibition [CLK]
Settings: for IC50: curve of first compound; for viability, T/C: stronger effect = lower value
In short: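 Patient-derived tumor cells grown as complex spheroids with HUVEC endothelial cells and mesenchymal stem cells, treated with drug combinations. Concentrations descend in half-log steps from near clinical Cmax, or from 10 microM if Cmax unknown.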

[1] = second compound 0.0316 µM, first compound 0.0316 µM
[2] = second compound 0.0316 µM, first compound 0.1 µM
[3] = second compound 0.0316 µM, first compound 0.316 µM
[4] = second compound 0.0316 µM, first compound 1 µM
[5] = second compound 0.0316 µM, first compound 3.16 µM
[6] = second compound 0.0316 µM, first compound 10 µM
[7] = second compound 0.1 µM, first compound 0.0316 µM
[8] = second compound 0.1 µM, first compound 0.1 µM
[9] = second compound 0.1 µM, first compound 0.316 µM
[10] = second compound 0.1 µM, first compound 1 µM
[11] = second compound 0.1 µM, first compound 3.16 µM
[12] = second compound 0.1 µM, first compound 10 µM
[13] = second compound 0.316 µM, first compound 0.0316 µM
[14] = second compound 0.316 µM, first compound 0.1 µM
[15] = second compound 0.316 µM, first compound 0.316 µM
[16] = second compound 0.316 µM, first compound 1 µM
[17] = second compound 0.316 µM, first compound 3.16 µM
[18] = second compound 0.316 µM, first compound 10 µM
[19] = second compound 1 µM, first compound 0.0316 µM
[20] = second compound 1 µM, first compound 0.1 µM
[21] = second compound 1 µM, first compound 0.316 µM
[22] = second compound 1 µM, first compound 1 µM
[23] = second compound 1 µM, first compound 3.16 µM
[24] = second compound 1 µM, first compound 10 µM
[25] = second compound 3.16 µM, first compound 0.0316 µM
[26] = second compound 3.16 µM, first compound 0.1 µM
[27] = second compound 3.16 µM, first compound 0.316 µM
[28] = second compound 3.16 µM, first compound 1 µM
[29] = second compound 3.16 µM, first compound 3.16 µM
[30] = second compound 3.16 µM, first compound 10 µM
[31] = second compound 10 µM, first compound 0.0316 µM
[32] = second compound 10 µM, first compound 0.1 µM
[33] = second compound 10 µM, first compound 0.316 µM
[34] = second compound 10 µM, first compound 1 µM
[35] = second compound 10 µM, first compound 3.16 µM
[36] = second compound 10 µM, first compound 10 µM
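Note: viability read after seven days of drug exposure.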
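Throughout, for viability, T/C: 100% = DMSO vehicle control wells.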

- IC50 (second compound 0.0316 µM): > 10 µM
- IC50 (second compound 0.1 µM): < 0.0316 µM
- IC50 (second compound 0.316 µM): < 0.0316 µM
- IC50 (second compound 1 µM): < 0.0316 µM
- IC50 (second compound 3.16 µM): < 0.0316 µM
- IC50 (second compound 10 µM): < 0.0316 µM
Compound: C=CC(=O)N1CCN(c2nc(=O)n(-c3c(C)ccnc3C(C)C)c3nc(-c4c(O)cccc4F)c(F)cc23)C(C)C1 (stereo not given) + CNC(=O)c1ccc(Nc2nc(OC3CCCC3)c3c(-c4ccc5nc(C)oc5c4)c[nH]c3n2)c(OC)c1
- viability, T/C [1]: 92.7%
- viability, T/C [2]: 95.3%
- viability, T/C [3]: 96.2%
- viability, T/C [4]: 102%
- viability, T/C [5]: 88.8%
- viability, T/C [6]: 81.4%
- viability, T/C [7]: 32.6%
- viability, T/C [8]: 30.8%
- viability, T/C [9]: 27.9%
- viability, T/C [10]: 35.1%
- viability, T/C [11]: 33.5%
- viability, T/C [12]: 31.6%
- viability, T/C [13]: 20.4%
- viability, T/C [14]: 17.4%
- viability, T/C [15]: 20.7%
- viability, T/C [16]: 20.4%
- viability, T/C [17]: 23.9%
- viability, T/C [18]: 27.4%
- viability, T/C [19]: 15.3%
- viability, T/C [20]: 16.1%
- viability, T/C [21]: 16.5%
- viability, T/C [22]: 19.3%
- viability, T/C [23]: 20.5%
- viability, T/C [24]: 21.5%
- viability, T/C [25]: 18.3%
- viability, T/C [26]: 18.4%
- viability, T/C [27]: 20.4%
- viability, T/C [28]: 18.8%
- viability, T/C [29]: 23.7%
- viability, T/C [30]: 25.5%
- viability, T/C [31]: 19.4%
- viability, T/C [32]: 15.6%
- viability, T/C [33]: 18.5%
- viability, T/C [34]: 21%
- viability, T/C [35]: 25.5%
- viability, T/C [36]: 25.7%

- IC50 (second compound 0.0316 µM): 4.52 µM
- IC50 (second compound 0.1 µM): < 0.0316 µM
- IC50 (second compound 0.316 µM): < 0.0316 µM
- IC50 (second compound 1 µM): < 0.0316 µM
- IC50 (second compound 3.16 µM): < 0.0316 µM
- IC50 (second compound 10 µM): < 0.0316 µM
Compound: CC1(C)CCC(CN2CCN(c3ccc(C(=O)NS(=O)(=O)c4ccc(NCC5CCOCC5)c([N+](=O)[O-])c4)c(Oc4cnc5[nH]ccc5c4)c3)CC2)=C(c2ccc(Cl)cc2)C1 + CNC(=O)c1ccc(Nc2nc(OC3CCCC3)c3c(-c4ccc5nc(C)oc5c4)c[nH]c3n2)c(OC)c1
- viability, T/C [1]: 76.8%
- viability, T/C [2]: 78.4%
- viability, T/C [3]: 84.1%
- viability, T/C [4]: 83.6%
- viability, T/C [5]: 69.4%
- viability, T/C [6]: 6.56%
- viability, T/C [7]: 29.6%
- viability, T/C [8]: 25.7%
- viability, T/C [9]: 26.6%
- viability, T/C [10]: 19.6%
- viability, T/C [11]: 19.8%
- viability, T/C [12]: 4.63%
- viability, T/C [13]: 18.9%
- viability, T/C [14]: 14.3%
- viability, T/C [15]: 15.2%
- viability, T/C [16]: 13.7%
- viability, T/C [17]: 14.6%
- viability, T/C [18]: 4.21%
- viability, T/C [19]: 14.7%
- viability, T/C [20]: 21.3%
- viability, T/C [21]: 14.7%
- viability, T/C [22]: 14.5%
- viability, T/C [23]: 13.2%
- viability, T/C [24]: 7.92%
- viability, T/C [25]: 17.9%
- viability, T/C [26]: 14.5%
- viability, T/C [27]: 14%
- viability, T/C [28]: 14.8%
- viability, T/C [29]: 13.6%
- viability, T/C [30]: 8.16%
- viability, T/C [31]: 14.8%
- viability, T/C [32]: 15.1%
- viability, T/C [33]: 15.8%
- viability, T/C [34]: 14.7%
- viability, T/C [35]: 14%
- viability, T/C [36]: 7.47%

Further lines, the molecule ahead of its results:

Compound: COc1ccc([C@@H](O)c2cc(-c3ncnc4cc(N5CCOCC5)ccc34)c(F)cc2Cl)nn1 + CN1CCN(c2cc(C(=O)Nc3cc4cc(-c5cnn(C)c5)ccc4cn3)ccn2)CC1
- IC50 (second compound 0.0316 µM): 2.01 µM
- IC50 (second compound 0.1 µM): 0.0575 µM
- IC50 (second compound 0.316 µM): < 0.0316 µM
- IC50 (second compound 1 µM): < 0.0316 µM
- IC50 (second compound 3.16 µM): < 0.0316 µM
- IC50 (second compound 10 µM): < 0.0316 µM
- viability, T/C [1]: 72%
- viability, T/C [2]: 78.8%
- viability, T/C [3]: 65.8%
- viability, T/C [4]: 59.8%
- viability, T/C [5]: 44.1%
- viability, T/C [6]: 34.7%
- viability, T/C [7]: 53%
- viability, T/C [8]: 48%
- viability, T/C [9]: 40.3%
- viability, T/C [10]: 44.5%
- viability, T/C [11]: 37.8%
- viability, T/C [12]: 30.9%
- viability, T/C [13]: 19.6%
- viability, T/C [14]: 21.9%
- viability, T/C [15]: 21.4%
- viability, T/C [16]: 20.2%
- viability, T/C [17]: 19%
- viability, T/C [18]: 18.9%
- viability, T/C [19]: 0.42%
- viability, T/C [20]: 0.46%
- viability, T/C [21]: 0.79%
- viability, T/C [22]: 0.47%
- viability, T/C [23]: 1.14%
- viability, T/C [24]: 0.71%
- viability, T/C [25]: 0.13%
- viability, T/C [26]: 0.16%
- viability, T/C [27]: 0.28%
- viability, T/C [28]: 0.12%
- viability, T/C [29]: 0.24%
- viability, T/C [30]: 0.29%
- viability, T/C [31]: 0.06%
- viability, T/C [32]: 0.14%
- viability, T/C [33]: 0.25%
- viability, T/C [34]: 0.13%
- viability, T/C [35]: 0.31%
- viability, T/C [36]: 0.58%

Compound: Nc1ccn(C2OC(CO)C(O)C2(F)F)c(=O)n1 (stereo not given) + CNC(=O)c1ccc(Nc2nc(OC3CCCC3)c3c(-c4ccc5nc(C)oc5c4)c[nH]c3n2)c(OC)c1
- IC50 (second compound 0.0316 µM): < 0.0316 µM
- IC50 (second compound 0.1 µM): < 0.0316 µM
- IC50 (second compound 0.316 µM): < 0.0316 µM
- IC50 (second compound 1 µM): < 0.0316 µM
- IC50 (second compound 3.16 µM): < 0.0316 µM
- IC50 (second compound 10 µM): < 0.0316 µM
- viability, T/C [1]: 38.6%
- viability, T/C [2]: 16.4%
- viability, T/C [3]: 15.2%
- viability, T/C [4]: 14%
- viability, T/C [5]: 10.6%
- viability, T/C [6]: 8.72%
- viability, T/C [7]: 23%
- viability, T/C [8]: 18.8%
- viability, T/C [9]: 12.8%
- viability, T/C [10]: 14.2%
- viability, T/C [11]: 10.3%
- viability, T/C [12]: 7.12%
- viability, T/C [13]: 17.1%
- viability, T/C [14]: 14.8%
- viability, T/C [15]: 12.3%
- viability, T/C [16]: 12.5%
- viability, T/C [17]: 8.68%
- viability, T/C [18]: 7.82%
- viability, T/C [19]: 15%
- viability, T/C [20]: 15.4%
- viability, T/C [21]: 12.2%
- viability, T/C [22]: 11.6%
- viability, T/C [23]: 9.63%
- viability, T/C [24]: 8.24%
- viability, T/C [25]: 17.1%
- viability, T/C [26]: 13.7%
- viability, T/C [27]: 13%
- viability, T/C [28]: 12%
- viability, T/C [29]: 8.99%
- viability, T/C [30]: 9.03%
- viability, T/C [31]: 18%
- viability, T/C [32]: 12.9%
- viability, T/C [33]: 14.3%
- viability, T/C [34]: 12.1%
- viability, T/C [35]: 13.4%
- viability, T/C [36]: 8.05%

Compound: Nc1ccn(C2OC(CO)C(O)C2(F)F)c(=O)n1 (stereo not given) + CN1CCN(c2cc(C(=O)Nc3cc4cc(-c5cnn(C)c5)ccc4cn3)ccn2)CC1
- IC50 (second compound 0.0316 µM): < 0.0316 µM
- IC50 (second compound 0.1 µM): < 0.0316 µM
- IC50 (second compound 0.316 µM): < 0.0316 µM
- IC50 (second compound 1 µM): < 0.0316 µM
- IC50 (second compound 3.16 µM): < 0.0316 µM
- IC50 (second compound 10 µM): < 0.0316 µM
- viability, T/C [1]: 31.4%
- viability, T/C [2]: 16.4%
- viability, T/C [3]: 11.3%
- viability, T/C [4]: 11.3%
- viability, T/C [5]: 6.96%
- viability, T/C [6]: 6.17%
- viability, T/C [7]: 25.3%
- viability, T/C [8]: 14.2%
- viability, T/C [9]: 11.5%
- viability, T/C [10]: 10.8%
- viability, T/C [11]: 5.43%
- viability, T/C [12]: 4.89%
- viability, T/C [13]: 18.9%
- viability, T/C [14]: 12.7%
- viability, T/C [15]: 10.2%
- viability, T/C [16]: 8.86%
- viability, T/C [17]: 5.88%
- viability, T/C [18]: 1.97%
- viability, T/C [19]: 0.83%
- viability, T/C [20]: 0.6%
- viability, T/C [21]: 0.57%
- viability, T/C [22]: 0.45%
- viability, T/C [23]: 0.37%
- viability, T/C [24]: 0.22%
- viability, T/C [25]: 0.13%
- viability, T/C [26]: 0.16%
- viability, T/C [27]: 0.15%
- viability, T/C [28]: 0.12%
- viability, T/C [29]: 0.14%
- viability, T/C [30]: 0.19%
- viability, T/C [31]: 0.11%
- viability, T/C [32]: 0.12%
- viability, T/C [33]: 0.19%
- viability, T/C [34]: 0.12%
- viability, T/C [35]: 0.17%
- viability, T/C [36]: 0.16%
